Experimental data published in the supplement of paper PMC11208160.

assay: recombinant UMI read abundance after kanamycin selection (control-corrected) (log10(CPM+1)); higher = more efficient recombination; extreme values may be limits of the assay; sequences stand for … in AGTGCAGAGAAAATCGGCCAGTTTTCTCTGCCTGCAGTCCGCATGCCGTGGGACCCCTTGGGTTCTAACCTGTTGCCTAGATTTATGCAGCGGACTGCCTTTCTCCCAAAGTGATAAACCGG…AGGTTGGTTTCACT; site = the 11-nt donor
Summary of the method: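 In Escherichia coli, a pool of donor and donor-binding-loop pairs, each with a 12-nt UMI, was tested for the IS621 bridge recombinase. Plating was on IPTG (0.07 mM) plus kanamycin, or without selection, in two replicates. Recombinant UMIs were amplified by PCR across the donor–target junction and sequenced, and counts were reported as log10(CPM+1) after averaging and control-derived scaling.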
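Note: IS621 bridge recombinase in Escherichia coli cells against a fixed T5 target plasmid.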

In order of rising “recombinant UMI read abundance (log10)” value:
1. CCGTCTACATGGACCGGTTTTCCCGGTAATCCGTATTTGCT (site CCGTGTACTAG)  0
2. CTTGGATCATGGACCGGTTTTCCCGGTAATCCGTATTTGAC (site CTAGTATCTGT)  0
3. TTCGTCCCATGGACCGGTTTTCCCGGTAATCCGTATTTGTC (site TTCGTCCCTGA)  0
4. GCCGGTCCATGGACCGGTTTTCCCGGTAATCCGTATTTGCA (site TCCGGTCCTTG)  0
5. CCTAATACATGGACCGGTTTTCCCGGTAATCCGTATTTGGT (site CCTAATACTAC)  0
6. CGTTTGACATGGACCGGTTTTCCCGGTAATCCGTATTTGCT (site CGTTTGTCTAG)  0
7. CAAATCCCATGGACCGGTTTTCCCGGTAATCCGTATTTGCT (site CAAGTCCCTAG)  0
8. CACAAACCATGGACCGGTTTTCCCGGTAATCCGTATTTGGT (site CACAAACCTAC)  0
9. CGTTTGGCATGGACCGGTTTTCCCGGTAATCCGTATTTGCT (site CGTTTGCCTAG)  0
10. CGGAATCCATGGACCGGTTTTCCCGGTAATCCGTATTTGTT (site CGGAATACTAT)  0
11. GAATATTCATGGACCGGTTTTCCCGGTAATCCGTATTTGTT (site GAAAATTCTAA)  0
12. GAATGGCCATGGACCGGTTTTCCCGGTAATCCGTATTTGCA (site GTATGGCCTTG)  0
13. CGATTATCATGGACCGGTTTTCCCGGTAATCCGTATTTGCT (site CGATCATCTAG)  0
14. GCTTGCTCATGGACCGGTTTTCCCGGTAATCCGTATTTGAT (site GCTTGCACTAT)  0.00386
15. TAATTAGCATGGACCGGTTTTCCCGGTAATCCGTATTTGGG (site TAATTAGCTCC)  0.0073
16. CCCCACACATGGACCGGTTTTCCCGGTAATCCGTATTTGTA (site CCCCACCCTTA)  0.00838
17. TAATAAGCATGGACCGGTTTTCCCGGTAATCCGTATTTGGG (site TAATGAGCTCC)  0.00879
18. ATCTAGACATGGACCGGTTTTCCCGGTAATCCGTATTTGGG (site ATCTAGACTCC)  0.0102
19. CCCCACACATGGACCGGTTTTCCCGGTAATCCGTATTTGTA (site CACCACACTTA)  0.0132
20. GCGAGGCCATGGACCGGTTTTCCCGGTAATCCGTATTTGGG (site GCGAAGCCTCC)  0.0133
21. GGCCTAGCATGGACCGGTTTTCCCGGTAATCCGTATTTGTT (site CGCCTAGCTAA)  0.0146
22. ACTTCTACATGGACCGGTTTTCCCGGTAATCCGTATTTGTG (site ACATCTACTCA)  0.0153
23. TGCCATGCATGGACCGGTTTTCCCGGTAATCCGTATTTGCC (site TGCCATGCTGG)  0.0153
24. GGCCCCCCATGGACCGGTTTTCCCGGTAATCCGTATTTGTT (site GGCCTCCCTAA)  0.0156
25. AAAGCGCCATGGACCGGTTTTCCCGGTAATCCGTATTTGTG (site CAAGCGCCTCA)  0.017
26. CAAGGCACATGGACCGGTTTTCCCGGTAATCCGTATTTGGG (site CAAGCCACTCC)  0.0196
27. CGTTAGACATGGACCGGTTTTCCCGGTAATCCGTATTTGAG (site CGTTAGACTCA)  0.0196
28. AGCCTAGCATGGACCGGTTTTCCCGGTAATCCGTATTTGCT (site AGCCTAGCTAC)  0.0198
29. CACTCCTCATGGACCGGTTTTCCCGGTAATCCGTATTTGCC (site CACTCCCCTGG)  0.105
30. TATAGCCCATGGACCGGTTTTCCCGGTAATCCGTATTTGTA (site TATAGCCCTTA)  0.181
31. ACCACCGCATGGACCGGTTTTCCCGGTAATCCGTATTTGCG (site CCCACCGCTCG)  0.221
32. TGGTCGGCATGGACCGGTTTTCCCGGTAATCCGTATTTGGC (site TGGTCGGCTGC)  0.268
33. GTATGCTCATGGACCGGTTTTCCCGGTAATCCGTATTTGTA (site GTATGCACTTA)  0.29
34. AGCTGAGCATGGACCGGTTTTCCCGGTAATCCGTATTTGGG (site AGCTGAGCTCC)  0.385
35. CAAGTGCCATGGACCGGTTTTCCCGGTAATCCGTATTTGTG (site CAAGCGCCTCA)  0.389
36. CGTTGGGCATGGACCGGTTTTCCCGGTAATCCGTATTTGCT (site CGTTAGGCTAG)  0.41
37. CCCTCCTCATGGACCGGTTTTCCCGGTAATCCGTATTTGCC (site CTCTCCTCTGG)  0.448
38. TAGAGCCCATGGACCGGTTTTCCCGGTAATCCGTATTTGCG (site TAGAGCCCTCG)  0.457
39. GTAGGTACATGGACCGGTTTTCCCGGTAATCCGTATTTGAA (site GTAGGTACTGT)  0.479
40. GCACGAACATGGACCGGTTTTCCCGGTAATCCGTATTTGTC (site TCACGAACTGA)  0.552
41. TGTCGTCCATGGACCGGTTTTCCCGGTAATCCGTATTTGCA (site TGTCGTCCTTG)  0.616
42. CTCCCTACATGGACCGGTTTTCCCGGTAATCCGTATTTGTG (site CTCCCTACTCC)  0.617
43. GATTGTACATGGACCGGTTTTCCCGGTAATCCGTATTTGCG (site GATTGTACTCG)  0.619
44. ACTCTCCCATGGACCGGTTTTCCCGGTAATCCGTATTTGAT (site ACTCTCCCTAT)  0.628
45. GGTACGTCATGGACCGGTTTTCCCGGTAATCCGTATTTGTA (site GGTACGTCTTA)  0.651
46. CTGGCTCCATGGACCGGTTTTCCCGGTAATCCGTATTTGGC (site CTGGCTCCTGC)  0.763
47. TGGGTGACATGGACCGGTTTTCCCGGTAATCCGTATTTGAG (site TGGGTGACTCT)  0.83
48. TTAGCAACATGGACCGGTTTTCCCGGTAATCCGTATTTGAG (site TTAGCAACTCT)  0.835
49. GCTCGGGCATGGACCGGTTTTCCCGGTAATCCGTATTTGAG (site GCTCGGGCTCT)  0.866
50. GTCCATGCATGGACCGGTTTTCCCGGTAATCCGTATTTGGT (site GTCCATGCTAC)  0.891
51. CAATGCTCATGGACCGGTTTTCCCGGTAATCCGTATTTGAA (site CAATGCTCTCT)  0.924
52. AGAAAGACATGGACCGGTTTTCCCGGTAATCCGTATTTGCT (site AGAAAGCCTAG)  0.934
53. ATCCAAGCATGGACCGGTTTTCCCGGTAATCCGTATTTGTG (site ATCCAAGCTCG)  1.13
54. GTGCGAGCATGGACCGGTTTTCCCGGTAATCCGTATTTGCA (site GTTCGAGCTTG)  1.48
55. CTGTACACATGGACCGGTTTTCCCGGTAATCCGTATTTGCT (site CTCTACACTAG)  1.52
56. CTTCAATCATGGACCGGTTTTCCCGGTAATCCGTATTTGGA (site CTTCAATCTTC)  1.71
57. GTATGCCCATGGACCGGTTTTCCCGGTAATCCGTATTTGTA (site GTATGCTCTTA)  1.76
58. TGATCCTCATGGACCGGTTTTCCCGGTAATCCGTATTTGCT (site TGATCCTCTAG)  1.81
59. ATTGAGACATGGACCGGTTTTCCCGGTAATCCGTATTTGGC (site ATTGAGACTGC)  1.83
60. AGAATGGCATGGACCGGTTTTCCCGGTAATCCGTATTTGCT (site AGAAAGGCTAG)  1.89
61. AGTGTAACATGGACCGGTTTTCCCGGTAATCCGTATTTGCT (site AGTGTAACTAG)  1.94
62. TTAGGTACATGGACCGGTTTTCCCGGTAATCCGTATTTGAC (site TTAGGTACTGT)  1.98
63. GAATGGGCATGGACCGGTTTTCCCGGTAATCCGTATTTGCA (site GAATGGACTTG)  1.98
64. CGGGAATCATGGACCGGTTTTCCCGGTAATCCGTATTTGAT (site CGGGAATCTAT)  2.01
65. GGGACGTCATGGACCGGTTTTCCCGGTAATCCGTATTTGTG (site GGGACGTCTCA)  2.05
66. CGTGAGACATGGACCGGTTTTCCCGGTAATCCGTATTTGAG (site CGTGAGACTCT)  2.08
67. GTAGCCGCATGGACCGGTTTTCCCGGTAATCCGTATTTGCG (site GTAGCCGCTCG)  2.08
68. GTTTAGGCATGGACCGGTTTTCCCGGTAATCCGTATTTGGC (site GTTTAGGCTGC)  2.08
69. GTGAGTGCATGGACCGGTTTTCCCGGTAATCCGTATTTGAG (site GTGAGTGCTCT)  2.12
70. CGCGGGACATGGACCGGTTTTCCCGGTAATCCGTATTTGGC (site CGCGGGACTGC)  2.25
71. GCTTAGTCATGGACCGGTTTTCCCGGTAATCCGTATTTGTT (site GCTTAGTCTAA)  2.37
72. AATGGGTCATGGACCGGTTTTCCCGGTAATCCGTATTTGAC (site AATGGGTCTGT)  2.68
73. CGATGTGCATGGACCGGTTTTCCCGGTAATCCGTATTTGGC (site CGATGTGCTGC)  3.02
74. AGGGGCGCATGGACCGGTTTTCCCGGTAATCCGTATTTGCC (site AGGGGCGCTGG)  3.25
75. CGACCCTCATGGACCGGTTTTCCCGGTAATCCGTATTTGCT (site CGACCCTCTAG)  3.63
